Reference: article PMC11274883, “Anticancer Effect of Pt^[sequence], Pt^II5MESS, Pt^II56MESS and Their Platinum(IV)-Dihydroxy Derivatives against Triple-Negative Breast Cancer and Cisplatin-Resistant Colorectal Cancer” (Cancers, 2024)

How the values were obtained:
Format in all cases: cell-based
[1] = test system: HT29 cells; assay: DCFDA cellular ROS detection assay; conditions: complexes at IC50, TBHP 20 µM
Experimental: (§1) DCFDA/H2DCFDA-cellular ROS Assay Kit (Abcam, Cambridge, MA, USA) was used to investigate the production of ROS in treated cells, as previously described. MDA−MB−231 or HT29 cells were seeded at a total concentration of 2500 cells/well in 96-well plates and incubated overnight. DMEM was then removed, and cells washed with 1× kit buffer, and stained with 25 µM 2′,7′-dichlorofluorescein diacetate (DCFH-DA) for 45 min. […] After that, the plates were scanned using the Glo-Max®-Multimode microplate reader (Promega Corporation, Alexandra, VIC, Australia) at an excitation/emission of 485/535 nm to detect fluorescence (relative fluorescence units, or RFU) at various time points. A positive control was generated using 20 µM tert-butyl hydroperoxide (TBHP), and the same procedure was applied with DCFDA. Three independent experiments in triplicates were implemented.

[2] = test system: MDA−MB−231 cells; assay: DCFDA cellular ROS detection assay; conditions: complexes at IC50, TBHP 20 µM
Experimental: as §1

[3] = test system: HT29 cells; assay: TMRE mitochondrial membrane potential assay; conditions: complexes at IC50, FCCP 20 µM
Experimental: (§2) Cells were then treated with an IC50 drug concentration for each complex. At 24, 48 or 72 h, DMEM was removed, and cells were washed with PBS. Then, cells were incubated with 1 µM tetramethylrhodamine, ethyl ester (TMRE) stain for 30 min. TMRE was then removed, and cells were washed twice with PBS (0.2% BSA), after which phenol red-free media was added. […] The cells were then stained with TMRE, as described above, and the resulting solution was scanned for fluorescence. Three independent experiments in triplicates were implemented.

[4] = test system: MDA−MB−231 cells; assay: TMRE mitochondrial membrane potential assay; conditions: complexes at IC50, FCCP 20 µM
Experimental: as §2

| Compound | ROS production ([1]; HT29, 24 h) [RFU] | ROS production ([1]; HT29, 48 h) [RFU] | ROS production ([1]; HT29, 72 h) [RFU] | ROS production ([2]; MDA−MB−231, 24 h) [RFU] | ROS production ([2]; MDA−MB−231, 48 h) [RFU] | ROS production ([2]; MDA−MB−231, 72 h) [RFU] | MtMp (mitochondrial membrane potential) ([3]; HT29, 24 h) [RFU] | MtMp (mitochondrial membrane potential) ([3]; HT29, 48 h) [RFU] | MtMp (mitochondrial membrane potential) ([3]; HT29, 72 h) [RFU] | MtMp (mitochondrial membrane potential) ([4]; MDA−MB−231, 24 h) [RFU] | MtMp (mitochondrial membrane potential) ([4]; MDA−MB−231, 48 h) [RFU] | MtMp (mitochondrial membrane potential) ([4]; MDA−MB−231, 72 h) [RFU] |
| --- | --- | --- | --- | --- | --- | --- | --- | --- | --- | --- | --- | --- |
| CC(C)(C)OO [TBHP, tert-butyl hydroperoxide, reference compound] | 544.67 | 362.55 | 371.44 | 509.88 | 400.11 | 388.41 | – | – | – | – | – | – |
| N#CC(C#N)=NNc1ccc(OC(F)(F)F)cc1 [FCCP, carbonyl cyanide 4-(trifluoromethoxy) phenylhydrazone, reference compound] | – | – | – | – | – | – | 184.32 | 143.31 | 83.58 | 215.89 | 123.38 | 99.10 |
